Entries after “also recorded” stand apart in the source; their conditions may differ.
How the values were obtained:
Stat1:Stat1 = target: T1, Stat1:Stat1 (Mus musculus, UniProt P42225); experiment: Stat1 DNA-binding activity, EMSA with MGFe probe, nuclear extracts of EGF-stimulated NIH3T3/hEGFR; assay type: biochemical; details: for effect on Stat1:Stat1 DNA-binding activity: EMSA, MGFe probe; for disruption of Stat1 DNA-binding activity: concentrations up to 20 μM
T1 construct: endogenous in cells; host or cells: EGF-stimulated NIH3T3/hEGFR (nuclear extract)
T1 sequence (P42225 2-749 limits assumed): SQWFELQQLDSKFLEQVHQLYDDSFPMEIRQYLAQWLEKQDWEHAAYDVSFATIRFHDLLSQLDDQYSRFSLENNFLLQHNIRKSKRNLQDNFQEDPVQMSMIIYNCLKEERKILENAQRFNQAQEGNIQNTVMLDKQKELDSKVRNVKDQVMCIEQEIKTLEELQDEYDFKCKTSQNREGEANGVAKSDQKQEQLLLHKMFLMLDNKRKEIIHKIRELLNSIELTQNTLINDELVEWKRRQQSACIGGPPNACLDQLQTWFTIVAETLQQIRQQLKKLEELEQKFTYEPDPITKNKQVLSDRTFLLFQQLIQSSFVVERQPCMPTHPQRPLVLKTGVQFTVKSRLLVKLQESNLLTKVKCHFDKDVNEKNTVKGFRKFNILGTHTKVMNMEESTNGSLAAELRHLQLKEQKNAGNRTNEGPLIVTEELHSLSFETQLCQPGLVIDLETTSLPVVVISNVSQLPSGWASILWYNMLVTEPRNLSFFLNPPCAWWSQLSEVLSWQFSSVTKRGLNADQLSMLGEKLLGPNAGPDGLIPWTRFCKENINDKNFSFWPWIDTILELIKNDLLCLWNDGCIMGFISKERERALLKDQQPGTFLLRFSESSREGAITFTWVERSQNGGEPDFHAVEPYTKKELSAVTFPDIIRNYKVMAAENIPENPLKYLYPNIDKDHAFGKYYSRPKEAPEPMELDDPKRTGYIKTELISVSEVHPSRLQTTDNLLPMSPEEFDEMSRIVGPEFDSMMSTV
Protocol: Nuclear extract preparations and electrophoretic mobility shift assay (EMSA) were carried out as previously described. Yu et al., 1995; Turkson et al., Stat3 activation by Src induces specific gene regulation and is required for cell transformation. Mol. Cell. Biol. 18:2545-2552 (1998). The ^32P-labeled oligonucleotide probes used were hSIE (high affinity sis-inducible element from the c-fos gene, m67 variant, 5′-[…]) (SEQ ID NO: 1) that binds Stat1 and Stat3 and MGFe (mammary gland factor element from the bovine β-casein gene promoter, 5′-[…]) (SEQ ID NO: 2) for Stat1 and Stat5 binding. Wagner et al., The SIF binding element confers sis/PDGF inducibility onto the c-fos promoter. EMBO J. 9:4477-4484 (1990); Gouilleux et al., Prolactin and interleukin-2 receptors in T lymphocytes signal through a MGF-STATS-like transcription factor. Endocrinology 136:5700-5708 (1995). Except where indicated, nuclear extracts were pre-incubated with compound for 30 min at room temperature prior to incubation with the radiolabeled probe for 30 min at 30° C. before subjecting to EMSA analysis. Bands corresponding to DNA-binding activities were scanned and quantified for each concentration of compound using ImageQuant and plotted as percent of control (vehicle) against concentration of compound, from which the IC50 values were derived, as previously reported. […] J Biol Chem. 280:32979-32988 (2005).
[…]. Zhang et al. (2012). […]. Siddiquee et al., Selective chemical probe inhibitor of Stat3, identified through structure-based virtual screening, induces antitumor activity, Proc Natl Acad Sci USA. 104:7391-7396 (2007).

[1] = system: Bcl-2, Bcl-xL, Cyclin D1, c-Myc, and Survivin; experiment: Immunoblotting of Stat3-regulated gene expression; details: MDA-MB-231 and U251 cells; 24 h-treatment (5 uM)
[2] = system: pY1068EGFR, pY416Src, pJak2, pShc, pErk1/2, pS473Akt; assay type: cell-based, human; details: concentrations that inhibit intracellular Stat3 activation (3-10 μM)
From the text: (§1) FIG. 2. […] Positions of STATs:DNA complexes or proteins in gel are labeled; control lanes (0) represent nuclear extracts treated with 0.05% DMSO, or nuclear extracts or whole-cell lysates prepared from 0.05% DMSO-treated cells. Values shown in each panel are means plus standard deviations of at least four independent transfections, each performed in triplicate. For each transfection, luciferase activity was normalized to transfection efficiency, with β-Gal activity as an internal control. *-<0.05. Data are representative of 3-4 independent determinations. FIG. 2 (H). […] FIG. 2 (I).
(§2) Turkson et al., Novel peptidomimetic inhibitors of signal transducer and activator of transcription 3 dimerization and biological activity. […] Mol. Cell. […] Mol. Cell. […] Mol. Cell.

pY705Stat3 = pY705Stat3 (Mus musculus, UniProt P42227); experiment: EGF-induced Stat3 phosphorylation in NIH3T3/hEGFR, immunoblotting; details: cells pre-treated for 24 h, 10 μM
Sequence of pY705Stat3 (P42227 whole entry): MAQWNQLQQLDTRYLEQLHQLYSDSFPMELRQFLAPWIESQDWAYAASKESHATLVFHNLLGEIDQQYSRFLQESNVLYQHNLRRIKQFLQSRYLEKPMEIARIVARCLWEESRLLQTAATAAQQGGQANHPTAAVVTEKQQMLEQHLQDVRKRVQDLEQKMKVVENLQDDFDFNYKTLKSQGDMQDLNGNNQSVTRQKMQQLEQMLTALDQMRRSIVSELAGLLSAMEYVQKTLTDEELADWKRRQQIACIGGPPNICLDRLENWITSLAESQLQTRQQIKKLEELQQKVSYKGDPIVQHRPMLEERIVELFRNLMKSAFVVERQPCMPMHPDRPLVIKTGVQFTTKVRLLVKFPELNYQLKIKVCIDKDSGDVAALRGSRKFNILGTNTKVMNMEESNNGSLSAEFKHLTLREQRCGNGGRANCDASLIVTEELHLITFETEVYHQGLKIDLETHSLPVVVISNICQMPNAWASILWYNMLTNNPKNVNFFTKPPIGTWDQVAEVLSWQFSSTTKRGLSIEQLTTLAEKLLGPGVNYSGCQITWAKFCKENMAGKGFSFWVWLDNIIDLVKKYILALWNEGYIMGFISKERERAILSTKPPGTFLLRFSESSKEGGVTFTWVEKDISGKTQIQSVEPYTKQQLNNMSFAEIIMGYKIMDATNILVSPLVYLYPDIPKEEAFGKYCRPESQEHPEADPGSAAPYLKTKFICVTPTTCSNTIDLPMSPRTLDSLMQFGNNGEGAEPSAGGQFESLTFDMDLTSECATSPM
From the text: (§3) Primary antibodies used were anti-Stat3, pY705Stat3, pY416Src, Src, pErk1/2, Erk1/2, EGFR, pEGFR, pJAK2, c-Myc, Bcl-xL, Bcl-2, Survivin, and β-Actin (Cell Signaling, Danvers), and VEGF (Santa Cruz Biotech, Santa Cruz).

[3] = In vivo pharmacokinetic analysis, serum and brain tissue levels; parameters: species or system mouse; details: mice, single dose tail vein injection 3 mg/kg
[4] = system: Stat3-independent luciferase reporter, pLucSRE; experiment: Stat3-independent luciferase reporter in NIH3T3 co-transfected with v-Src; assay type: cell-based, mouse; details: similar treatment (3 or 5 μM)
From the text: as §1, §2

[5] = system: glioma, breast cancer or pancreatic cancer; experiment: Treatment of subjects with cancer; assay type: in vivo; details: intravenous or oral, 0.08 mg/kg to 0.4 mg/kg
[6] = system: Stat3-dependent luciferase reporter, pLucTKS3; experiment: Stat3-dependent luciferase reporter in NIH3T3 co-transfected with v-Src; assay type: cell-based, mouse; details: 3 or 5 μM
From the text: as §1, §2

U251 cells = experiment: Intracellular levels by LC-MS of cell extracts; assay type: in vitro ADME, human; details: U251 cells treated once with 5 μM
From the text: The intracellular and tissue levels of SH5-07 were studied, following a single treatment.

EGF receptor and Stat3 = EGF receptor and Stat3 (Mus musculus, UniProt P42227); experiment: Co-immunoprecipitation of EGF receptor and Stat3 in EGF-stimulated NIH3T3/EGFR; details: pre-treatment 10 μM for 5 min to 24 h
Sequence of EGF receptor and Stat3 (P42227 2-770 limits assumed): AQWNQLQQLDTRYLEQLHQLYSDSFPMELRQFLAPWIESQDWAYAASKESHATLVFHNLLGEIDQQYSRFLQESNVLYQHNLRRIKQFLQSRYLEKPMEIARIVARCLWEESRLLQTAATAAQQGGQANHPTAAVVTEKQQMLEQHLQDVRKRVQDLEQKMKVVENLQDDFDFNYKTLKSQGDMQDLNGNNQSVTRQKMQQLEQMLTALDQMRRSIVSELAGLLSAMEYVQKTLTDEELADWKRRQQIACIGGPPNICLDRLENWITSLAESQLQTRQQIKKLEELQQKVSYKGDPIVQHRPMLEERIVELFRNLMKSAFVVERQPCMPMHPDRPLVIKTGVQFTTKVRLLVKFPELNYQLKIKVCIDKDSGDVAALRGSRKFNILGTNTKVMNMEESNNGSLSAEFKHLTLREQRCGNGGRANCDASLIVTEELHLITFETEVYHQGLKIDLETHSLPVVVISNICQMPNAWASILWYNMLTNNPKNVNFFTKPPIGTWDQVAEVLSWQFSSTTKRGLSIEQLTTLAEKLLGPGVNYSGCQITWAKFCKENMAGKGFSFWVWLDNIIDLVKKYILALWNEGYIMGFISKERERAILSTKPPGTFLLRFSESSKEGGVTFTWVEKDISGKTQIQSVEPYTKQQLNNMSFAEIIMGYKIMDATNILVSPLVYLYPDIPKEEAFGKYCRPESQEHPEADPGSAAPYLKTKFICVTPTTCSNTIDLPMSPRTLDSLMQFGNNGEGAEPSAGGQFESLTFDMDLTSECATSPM
From the text: as §3

Row | Compound | effect on Stat1:Stat1 DNA-binding activity (Stat1:Stat1) | disruption of Stat1 DNA-binding activity (Stat1:Stat1) | expression of Stat3-regulated genes [1] | effect on phosphorylation of EGFR, Src, Jak2, Shc, ERK1/2, Akt [2] | EGF-induced Stat3 phosphorylation (pY705Stat3) (pY705Stat3) | average level in brain tissue at 10 min [3] | average level in brain tissue at 60 min [3] | concentration at 10 min ([3]; mouse, serum, intravenous, read-out: average level in serum at 10 min post-dosing) | concentration at 60 min ([3]; mouse, serum, intravenous, read-out: average level in serum at 60 min) | induction of pLucSRE luciferase reporter [4] | tumor response in subjects [5] | induction by v-Src of pLucTKS3 luciferase reporter [6] | intracellular levels at 1 h (U251 cells) | intracellular levels at 6 h (U251 cells) | intracellular levels at 24 h (U251 cells) | co-IP between EGF receptor and Stat3 promoted by EGF (EGF receptor and Stat3)
1 | CN(CC(=O)N(Cc1ccc(C2CCCCC2)cc1)c1ccc(C(=O)O)cc1)S(=O)(=O)c1c(F)c(F)c(F)c(F)c1F [SH4-54] | little or no effect; also recorded: minimal effects | little or no disruption | down-regulated | little or no effect | – | – | – | – | – | – | – | – | – | – | – | –
2 | CN(CC(=O)N(Cc1ccc(C2CCCCC2)cc1)c1ccc(C(=O)NO)cc1)S(=O)(=O)c1c(F)c(F)c(F)c(F)c1F [SH5-07] | little or no effect; also recorded: minimal effects | little or no disruption | down-regulated; also recorded: significantly suppressed | – | inhibited | 7.76 fmole/mg tissue | 8.19 fmole/mg tissue | 13.5 µM | 4.67 µM | no attenuating effect | shrinkage of the tumors, or slowing of the progession of tumor growth is observed | significantly (p<0.01) inhibited | 1,238±181 μM | 27.6 µM | background levels | suppressed

Reference: patent US9802888B2, “STAT3 inhibitors” (UNIVERSITY OF HAWAII, priority 2013, dated 2017)
